Assay results reported in patent publication US8008488B2 (Abbott GmbH & Co. KG, priority 2003, dated 2011).
Where a name gives a salt, the structure may show the parent alone.

Experiments:
[1] = molecular target: T1, human dopamine D3 receptors (Homo sapiens, UniProt P35462); assay: Dopamine D3 receptor binding, displacement of [125I]-iodosulpride; conditions: membranes from HEK-293 cells with stably expressed human D3 receptors, 0.1 nM [125I]-iodosulpride
T1 construct: expressed in transfected cells

[2] = molecular target: T2, human dopamine D2L receptors (long isoform) (Homo sapiens, UniProt P14416); assay: Dopamine D2L receptor binding, displacement of [125I]-iodospiperone; conditions: *Ki(D2L)/Ki(D3), HEK-293 membranes, 0.01 nM [125I]-iodospiperone
T2 construct: expressed in transfected cells
Outline: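 Triplicate incubations ran 60 min at 25 °C in pH 7.4 Tris buffer with 120 mM NaCl, 5 mM KCl, 2 mM CaCl2, 2 mM MgCl2 and 0.1% BSA. Bound radioactivity was collected by GF/B filtration and counted as dpm. Inhibition curves were fitted by iterative nonlinear regression.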

T2 sequence (P14416 whole entry, canonical isoform): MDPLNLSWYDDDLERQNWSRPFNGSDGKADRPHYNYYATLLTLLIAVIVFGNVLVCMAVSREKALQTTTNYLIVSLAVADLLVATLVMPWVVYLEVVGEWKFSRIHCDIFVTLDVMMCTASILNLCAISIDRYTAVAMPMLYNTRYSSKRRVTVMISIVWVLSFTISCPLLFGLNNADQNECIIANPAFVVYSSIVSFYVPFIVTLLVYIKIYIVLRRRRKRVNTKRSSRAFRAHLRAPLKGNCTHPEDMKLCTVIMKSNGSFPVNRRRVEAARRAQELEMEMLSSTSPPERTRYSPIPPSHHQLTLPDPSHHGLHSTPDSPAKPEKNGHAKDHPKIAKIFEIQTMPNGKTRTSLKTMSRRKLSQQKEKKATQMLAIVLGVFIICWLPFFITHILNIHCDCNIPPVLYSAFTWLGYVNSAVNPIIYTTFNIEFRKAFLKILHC
T1 sequence (P35462 whole entry): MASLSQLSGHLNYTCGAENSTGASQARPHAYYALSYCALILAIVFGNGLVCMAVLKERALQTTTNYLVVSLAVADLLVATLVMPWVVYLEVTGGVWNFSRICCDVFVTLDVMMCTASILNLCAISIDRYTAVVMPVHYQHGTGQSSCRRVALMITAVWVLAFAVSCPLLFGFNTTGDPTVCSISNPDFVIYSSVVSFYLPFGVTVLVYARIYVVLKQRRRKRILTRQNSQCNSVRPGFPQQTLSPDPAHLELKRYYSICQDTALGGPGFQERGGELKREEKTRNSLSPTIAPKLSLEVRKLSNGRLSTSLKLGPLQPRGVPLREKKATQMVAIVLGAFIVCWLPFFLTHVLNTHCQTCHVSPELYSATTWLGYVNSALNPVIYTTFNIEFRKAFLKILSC

Compound | Ki [1] [nM] | Selectivity D3 vs. D2L* [2]
CC(=O)O.CC(C)(C)c1nc(N2CCN(CCCCn3ccc(C4CC4)nc3=O)CC2)cc(C(F)(F)F)n1 [Example 94, 4-(2-tert-Butyl-6-trifluoromethylpyrimidin-4-yl)-1-[4-(4-cyclopropyl-2-oxo-2H-pyrimidin-1-yl)butyl]piperazin-1-ium acetate] | 4.28 | 36
CCc1ccn(CCCCN2CCN(c3cc(C(F)(F)F)nc(C(C)(C)C)n3)CC2)c(=O)n1 [Example 95, 4-(2-tert-Butyl-6-trifluoromethylpyrimidin-4-yl)-1-[4-(4-ethyl-2-oxo-2H-pyrimidin-1-yl)butyl]piperazin-1-ium fumarate] | 6.53 | 45
CC(C)c1ccn(CCCCN2CCN(c3cc(C(F)(F)F)nc(C(C)(C)C)n3)CC2)c(=O)n1 [Example 97, 4-(2-tert-Butyl-6-trifluoromethylpyrimidin-4-yl)-1-[4-(4-isopropyl-2-oxo-2H-pyrimidin-1-yl)butyl]piperazin-1-ium fumarate] | 4.26 | 58
CCCc1cc(N2CCN(CCCCn3ccc(C(C)C)nc3=O)CC2)nc(C(C)(C)C)n1 [Example 98, 4-(2-tert-Butyl-6-propylpyrimidin-4-yl)-1-[4-(4-isopropyl-2-oxo-2H-pyrimidin-1-yl)butyl]piperazine 1-fumarate] | 1.62 | 59
CCCc1cc(N2CCN(CCCCn3ccc(C4CCCCC4)nc3=O)CC2)nc(C(C)(C)C)n1 [Example 100, 4-(2-tert-Butyl-6-propylpyrimidin-4-yl)-1-[4-(4-cyclohexyl-2-oxo-2H-pyrimidin-1-yl)butyl]piperazin-1-ium fumarate] | 1.38 | 51
Cc1ccccc1N1CCN(CCCCn2cc(C)c(=O)[nH]c2=O)CC1 [Example 111, 5-Methyl-1-[4-(4-(o-tolyl)piperazin-1-yl)butyl]-1H-pyrimidine-2,4-dione] | 6.8 | 30
Cc1cn(CCCCN2CCN(c3ccccc3Cl)CC2)c(=O)[nH]c1=O [Example 127, 1-{4-[4-(2-Chlorophenyl)piperazin-1-yl]butyl}-5-methyl-1H-pyrimidine-2,4-dione] | 1.5 | 45
Cc1cccc(N2CCN(CCCCn3cc(C)c(=O)[nH]c3=O)CC2)c1C [Example 128, 1-{4-[4-(2,3-Dimethylphenyl)piperazin-1-yl]butyl}-5-methyl-1H-pyrimidine-2,4-dione] | 2.4 | 55
Cc1cn(CCCCN2CCN(c3cccc(C(F)(F)F)c3)CC2)c(=O)[nH]c1=O [Example 129, 5-Methyl-1-{4-[4-(3-trifluoromethylphenyl)piperazin-1-yl]butyl}-1H-pyrimidine-2,4-dione] | 1.3 | 48

More lines, now with the values ahead:

Ki [1] [nM] | Selectivity D3 vs. D2L* [2] | Compound
0.46 | 65 | Cc1cn(CCCCN2CCN(c3cc(Cl)cc(Cl)c3)CC2)c(=O)[nH]c1=O [Example 119, 1-{4-[4-(3,5-Dichlorophenyl)piperazin-1-yl]butyl}-5-methyl-1H-pyrimidine-2,4-dione]
6.8 | 63 | Cc1cn(CCCCN2CCN(c3cc(C(F)(F)F)cc(C(F)(F)F)c3)CC2)c(=O)[nH]c1=O [Example 125, 1-{4-[4-(3,5-Bis-trifluoromethylphenyl)piperazin-1-yl]butyl}-5-methyl-1H-pyrimidine-2,4-dione]
25.7 | 30 | Cc1cn(CCCCN2CCN(c3ccc(F)cc3F)CC2)c(=O)[nH]c1=O [Example 131, 1-{4-[4-(2,4-Difluorophenyl)piperazin-1-yl]butyl}-5-methyl-1H-pyrimidine-2,4-dione]
5.5 | 34 | Cc1cc(C)cc(N2CCN(CCCCn3cc(C)c(=O)[nH]c3=O)CC2)c1 [Example 132, 1-{4-[4-(3,5-Dimethylphenyl)piperazin-1-yl]butyl}-5-methyl-1H-pyrimidine-2,4-dione]
13.1 | 55 | COc1cc(OC)cc(N2CCN(CCCCn3cc(C)c(=O)[nH]c3=O)CC2)c1 [Example 134, 1-{4-[4-(3,5-Dimethoxyphenyl)piperazin-1-yl]butyl}-5-methyl-1H-pyrimidine-2,4-dione]
0.27 | 87 | Cc1cn(CCCCN2CCN(c3cccc(Cl)c3Cl)CC2)c(=O)[nH]c1=O [Example 135, 1-{4-[4-(2,3-Dichlorophenyl)piperazin-1-yl]butyl}-5-methyl-1H-pyrimidine-2,4-dione]
